According to patent publication US8912195B2, “Alkyl amides as HIV attachment inhibitors” (priority 2010, dated 2014):

System: single-round infectious reporter virus with HIV-1 LAI envelope
Assay: Single-round infectious HIV-1 LAI luciferase reporter virus infection of MT2 cells
Format: cell-based
Details: Human immunodeficiency virus 1, MT2, 72 h, read-out: EC50 Group from Table 1
Excerpt: • Virus production—Human embryonic Kidney cell line, 293T (HEK 293T), was propagated in Dulbecco's Modified Eagle Medium (Invitrogen, Carlsbad, Calif.) containing 10% fetal Bovine serum (FBS, Sigma, St. Louis, Mo.). The human T-cell leukemia cell MT2 (AIDS Research and Reference Reagent Program, Cat. 237) was propagated in RPMI 1640 (Invitrogen, Carlsbad, Calif.) containing 10% fetal bovine serum (FBS, Hyclone, Logan, Utah) • Virus infection—Single-round infectious reporter virus was produced by co-transfecting HEK 293T cells with plasmide expressing the HIV-1 LAI envelope along with a plasmid containing an HIV-1 LAI proviral cDNA with the envelope gene replaced by a firefly luciferase reporter gene (Chen et al, Ref 41). Transfections were performed using lipofectAMINE PLUS reagent as described by the manufacturer (Invitrogen, Carlsbad, Calif.).
• 1. MT2 cells were plated in black, 384 well plates at a cell density of 5×10^3 cells per well in 25 μl RPMI 1640 containing 10% FBS. • 2. Compound (diluted in dimethylsulfoxide and growth medium) was added to cells at 12.5 μl/well, so that the final assay concentration would be ≦50 nM. • 3. 12.5 μl of single-round infectious reporter virus in Dulbecco's Modified Eagle Medium was added to the plated cells and compound at an approximate multiplicity of infection (MOI) of 0.01, resulting in a final volume of 50 μl per well. • 4. Virus-infected cells were incubated at 37 degrees Celsius, in a CO2 incubator, and harvested 72 h after infection. • 5. Viral infection was monitored by measuring luciferase expression in the infected cells using a luciferase reporter gene assay kit (Steady-Glo, Promega, Madison, Wis.) as described by the manufacturer. Luciferase activity was then quantified by measuring luminescence using an EnVision Multilabel Plate Readers (PerkinElmer, Waltham, Mass.). • 6. The percent inhibition for each compound was calculated by quantifying the level of luciferase expression in cells infected in the presence of each compound as a percentage of that observed for cells infected in the absence of compound and subtracting such a determined value from 100. • 7. An EC50 provides a method for comparing the antiviral potency of the compounds of this disclosure. The effective concentration for fifty percent inhibition (EC50) was calculated with the Microsoft Excel Xlfit curve fitting software. For each compound, curves were generated from percent inhibition calculated at 10 different concentrations by using a four paramenter logistic model (model 205). Table 1 is the key for the data in Table 2.

Row | SMILES | EC50 [nM]
1 | C[C@]12C[C@]3(C)C[C@](N)(C1)C[C@](C(=O)N1CCN(C(=O)C(=O)c4c[nH]c5c(-n6ccnn6)ncc(F)c45)CC1)(C2)C3 [Compound 2032] | > 500
2 | COc1cnc(-n2ccnn2)c2[nH]cc(C(=O)C(=O)N3CCN(C(=O)C4CCCCC4)CC3)c12 [Compound 1002, 1-(4-(cyclohexanecarbonyl)piperazin-1-yl)-2-(4-methoxy-7-(1H-1,2,3-triazol-1-yl)-1H-pyrrolo[2,3-c]pyridin-3-yl)ethane-1,2-dione] | < 500
3 | CC(C)C(=O)N1CCN(C(=O)C(=O)c2c[nH]c3c(-n4ccnn4)ncc(F)c23)CC1 [Compound 2039] | < 500
4 | N[C@H]1CCCC[C@@H]1C(=O)N1CCN(C(=O)C(=O)c2c[nH]c3c(-n4ccnn4)ncc(F)c23)CC1 [Compound 2006] | > 500
